Patent US11345666B2, “Phenyl and pyridinyl substituted imidazoles as modulators of RORγT” (Janssen Pharmaceutica NV, priority 2018, dated 2022)

Key:
[1] = target: human RORγt ligand binding domain (RORγt LBD) (Homo sapiens (Human), UniProt P51449); experiment: RORγt ThermoFluor assay
Outline: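 Thermal shift of His-tagged human RORγt LBD (0.065 mg/mL) with 60 μM 1,8-ANS in 100 mM Hepes pH 7.0, 10 mM NaCl, 2.5 mM GSH, 0.002% Tween-20, heated at 1° C./min. Compounds in 1:2 series from a 10 mM DMSO stock; KD estimated from ΔTm using protein unfolding thermodynamics.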

[2] = tested on: IL-17 production by CD4 T cells; experiment: Human Th17 assay; assay type: cell-based; conditions: 72 h, IL-17 in supernatant after 3 days
Description: The human Th17 assay tests the effect of RORγt modulatory compounds on IL-17 production by CD4 T cells under conditions which favor Th17 differentiation. Total CD4^+ T cells were isolated from the peripheral blood mononuclear cells (PBMC) of healthy donors using a CD4^+ T cell isolation kit II, following the manufacturer's instructions (Miltenyi Biotec). Cells were resuspended in a medium of RPMI-1640 supplemented with 10% fetal bovine serum, penicillin, streptomycin, glutamate, and β-mercaptoethanol and were added to 96-well plates at 1.5×10^5 per 100 μL per well. 50 μL of compound at titrated concentrations in DMSO were added into each well at final DMSO concentration at 0.2%. Cells were incubated for 1 hour, then 50 μL of Th17 cell differentiation medium was added to each well. The final concentrations of antibodies and cytokines (R&D Systems) in differentiation medium were: 3×10^6/mL anti-CD3/CD28 beads (prepared using human T cell activation/expansion kit, Miltenyi Biotec), 10 μg/mL anti-IL4, 10 μg/mL anti-IFNγ, 10 ng/mL IL1β, 10 ng/mL IL23, 50 ng/mL IL6, 3 ng/mL TGFβ and 20 U/mL IL2. Cells were cultured at 37° C. and 5% CO2 for 3 days. Supernatants were collected and the accumulated IL-17 in culture was measured by using MULTI-SPOT® Cytokine Plate following manufacture's instruction (Meso Scale Discovery). The plate was read using Sector Imager 6000, and IL-17 concentration was extrapolated from the standard curve. The IC50s were determined by GraphPad.

Sequence of human RORγt ligand binding domain (RORγt LBD) (P51449 other isoform, or with tags, fused parts or gaps): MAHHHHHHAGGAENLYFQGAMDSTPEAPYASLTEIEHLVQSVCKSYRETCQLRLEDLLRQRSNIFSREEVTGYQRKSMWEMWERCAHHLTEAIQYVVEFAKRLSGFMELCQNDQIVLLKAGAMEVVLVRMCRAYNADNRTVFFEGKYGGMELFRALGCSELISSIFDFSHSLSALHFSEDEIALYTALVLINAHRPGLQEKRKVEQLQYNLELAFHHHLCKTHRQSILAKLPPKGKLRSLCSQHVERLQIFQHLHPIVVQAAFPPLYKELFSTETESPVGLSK

| Structure (SMILES) | Kd [1] [nM] | IC50 [2] [nM] |
| --- | --- | --- |
| CCc1nc(C(=O)NC[C@H]2CC[C@H](S(C)(=O)=O)CC2)c(C)n1-c1ccc(CC(C)C(F)(F)F)cc1OC (single isomer, unassigned) [Example 7] | 1 | 7 |
| CCc1nc(C(=O)NC[C@]2(O)CC[C@@H](S(C)(=O)=O)CC2)c(C)n1-c1ccc(CC(C(F)(F)F)C(F)(F)F)cc1F [Example 109, 2-Ethyl-1-(2-fluoro-4-(3,3,3-trifluoro-2-(trifluoromethyl)propyl)phenyl)-N-(((1s,4s)-1-hydroxy-4-(methylsulfonyl)cyclohexyl)methyl)-5-methyl-1H-imidazole-4-carboxamide] | 6.5 | 79 |
| CCc1nc(C(=O)NC[C@H]2CC[C@H](S(C)(=O)=O)CC2)c(Cl)n1-c1ccc(CCC(F)(F)F)cc1F [Example 22, 5-Chloro-2-ethyl-1-(2-fluoro-4-(3,3,3-trifluoropropyl)phenyl)-N-(((1r,4r)-4-(methylsulfonyl)cyclohexyl)methyl)-1H-imidazole-4-carboxamide] | 20 | 42 |
| [2H]C([2H])([2H])Oc1cc(CC(C)(C)C(F)(F)F)ccc1-n1c(CC)nc(C(=O)NC[C@H]2CC[C@H](S(C)(=O)=O)CC2)c1C#N [Example 27, 5-Cyano-2-ethyl-1-(2-(methoxy-d3)-4-(3,3,3-trifluoro-2,2-dimethylpropyl)phenyl)-N-(((1r,4r)-4-(methylsulfonyl)cyclohexyl)methyl)-1H-imidazole-4-carboxamide] | 0.76 | 13 |
| CCc1nc(C(=O)NC[C@]2(O)CC[C@@H](S(C)(=O)=O)CC2)c(Cl)n1-c1ccc(CC(C(F)(F)F)C(F)(F)F)cc1F [Example 100, 5-Chloro-2-ethyl-1-(2-fluoro-4-(3,3,3-trifluoro-2-(trifluoromethyl)propyl)phenyl)-N-(((1s,4s)-1-hydroxy-4-(methylsulfonyl)cyclohexyl)methyl)-1H-imidazole-4-carboxamide] | 2.1 | 58 |
| CCc1nc(C(=O)NC[C@]2(O)CC[C@@H](S(C)(=O)=O)CC2)c(Cl)n1-c1c(F)cc(CC(C)C)cc1F [Example 83, 5-Chloro-1-(2,6-difluoro-4-isobutylphenyl)-2-ethyl-N-(((1s,4s)-1-hydroxy-4-(methylsulfonyl)cyclohexyl)methyl)-1H-imidazole-4-carboxamide] | 2.6 | > 6000 |
| CCc1nc(C(=O)NC[C@H]2CC[C@H](S(C)(=O)=O)CC2)c(C#N)n1-c1ccc(CC(C)(C)C(F)(F)F)cc1OC(F)F [Example 36, 5-Cyano-1-(2-(difluoromethoxy)-4-(3,3,3-trifluoro-2,2-dimethylpropyl)phenyl)-2-ethyl-N-(((1r,4r)-4-(methylsulfonyl)cyclohexyl)methyl)-1H-imidazole-4-carboxamide] | 1.6 | 8 |
| CCc1nc(C(=O)NC[C@]2(O)CC[C@@H](S(C)(=O)=O)CC2)c(C#N)n1-c1ccc(CC(C)(C)C(F)(F)F)cc1OC(F)(F)F [Example 111, 5-Cyano-2-ethyl-N-(((1s,4s)-1-hydroxy-4-(methylsulfonyl)cyclohexyl)methyl)-1-(4-(3,3,3-trifluoro-2,2-dimethylpropyl)-2-(trifluoromethoxy)phenyl)-1H-imidazole-4-carboxamide] | 24 | 69 |
| CCc1nc(C(=O)NC[C@H]2CC[C@H](S(C)(=O)=O)CC2)c(Cl)n1-c1ncc(CC(C)(C)C(F)(F)F)cc1OC(F)F [Example 2, 5-Chloro-1-(3-(difluoromethoxy)-5-(3,3,3-trifluoro-2,2-dimethylpropyl)pyridin-2-yl)-2-ethyl-N-((4-(methylsulfonyl)cyclohexyl)methyl)-1H-imidazole-4-carboxamide] | 2.4 | 85 |
| CCc1nc(C(=O)NC[C@H]2CC[C@H](S(C)(=O)=O)CC2)c(Cl)n1-c1ccc(N[C@H](C)C(F)(F)F)cc1OC [Example 3, 5-Chloro-2-ethyl-1-(2-methoxy-4-(((R)-1,1,1-trifluoropropan-2-yl)amino)phenyl)-N-(((1r,4R)-4-(methylsulfonyl)cyclohexyl)methyl)-1H-imidazole-4-carboxamide] | 3.5 | 31 |
| CCc1nc(C(=O)NC[C@H]2CC[C@H](S(C)(=O)=O)CC2)c(Cl)n1-c1ccc(CC(C)C(F)(F)F)cc1OC (single isomer, unassigned) [Example 6, 5-Chloro-2-ethyl-1-((1S*)-2-methoxy-4-(3,3,3-trifluoro-2-methylpropyl)phenyl)-N-(((1r,4S)-4-(methylsulfonyl)cyclohexyl)methyl)-1H-imidazole-4-carboxamide] | 0.17 | 2 |
| CCc1nc(C(=O)NC[C@H]2CC[C@H](S(C)(=O)=O)CC2)c(F)n1-c1ccc(N[C@H](C)C(F)(F)F)cc1OC [Example 12, 2-Ethyl-5-fluoro-1-(2-methoxy-4-(((R)-1,1,1-trifluoropropan-2-yl)amino)phenyl)-N-(((1r,4R)-4-(methylsulfonyl)cyclohexyl)methyl)-1H-imidazole-4-carboxamide] | 12 | 220 |
